Counter-ions that a name gives are not always drawn. Like-named read-outs stand apart in the source and are kept apart here.
Key:
TrkA = TrkA (Homo sapiens (Human), UniProt P04629); assay: TrkA activity, off-chip mobility shift assay (LabChip 3000); type: biochemical; conditions: 55 μM ATP (ATP Km); n/d = none detected
Description: (§1) Reagents and consumables were purchased from Sigma Aldrich, Carna Biosciences, or Caliper Life Sciences. All assay reaction conditions for IC50 determinations were within the linear range with respect to time and enzyme concentration. […] The LabChip 3000 separates and measures the fluorescent signal of fluorescein labeled peptide substrate and fluorescein labeled peptide product present in each well. Results are expressed as percent conversion by measuring peak height for both the substrate and product and dividing the product peak height by the sum of peak heights for both substrate and product.

TrkB = TrkB (Homo sapiens (Human), UniProt Q16620); assay: TrkB activity, off-chip mobility shift assay (LabChip 3000); type: biochemical
Description: as §1

[1] = 70 μM ATP (ATP Km), n/d = none detected

TrkA, sequence (P04629 33-796): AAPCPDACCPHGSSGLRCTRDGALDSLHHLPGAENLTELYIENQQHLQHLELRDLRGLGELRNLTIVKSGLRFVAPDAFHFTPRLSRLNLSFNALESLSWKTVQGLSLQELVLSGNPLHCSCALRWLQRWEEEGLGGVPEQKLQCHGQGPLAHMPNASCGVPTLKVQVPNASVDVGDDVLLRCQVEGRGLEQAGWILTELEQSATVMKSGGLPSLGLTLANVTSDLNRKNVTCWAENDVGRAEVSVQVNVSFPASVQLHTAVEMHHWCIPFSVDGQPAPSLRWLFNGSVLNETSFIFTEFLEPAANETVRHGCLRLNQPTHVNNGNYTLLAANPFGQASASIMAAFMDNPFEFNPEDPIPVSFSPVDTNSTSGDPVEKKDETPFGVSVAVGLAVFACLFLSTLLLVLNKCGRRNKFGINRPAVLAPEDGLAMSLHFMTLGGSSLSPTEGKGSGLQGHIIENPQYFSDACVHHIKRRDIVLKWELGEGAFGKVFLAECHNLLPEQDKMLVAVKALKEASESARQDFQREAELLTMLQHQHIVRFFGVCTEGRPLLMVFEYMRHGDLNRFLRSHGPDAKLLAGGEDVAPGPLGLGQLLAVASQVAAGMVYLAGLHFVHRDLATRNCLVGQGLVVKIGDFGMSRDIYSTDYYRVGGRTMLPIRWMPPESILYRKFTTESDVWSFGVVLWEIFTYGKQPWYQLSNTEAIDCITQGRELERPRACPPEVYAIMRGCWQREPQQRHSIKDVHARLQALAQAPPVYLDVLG
TrkB, sequence (Q16620 32-822): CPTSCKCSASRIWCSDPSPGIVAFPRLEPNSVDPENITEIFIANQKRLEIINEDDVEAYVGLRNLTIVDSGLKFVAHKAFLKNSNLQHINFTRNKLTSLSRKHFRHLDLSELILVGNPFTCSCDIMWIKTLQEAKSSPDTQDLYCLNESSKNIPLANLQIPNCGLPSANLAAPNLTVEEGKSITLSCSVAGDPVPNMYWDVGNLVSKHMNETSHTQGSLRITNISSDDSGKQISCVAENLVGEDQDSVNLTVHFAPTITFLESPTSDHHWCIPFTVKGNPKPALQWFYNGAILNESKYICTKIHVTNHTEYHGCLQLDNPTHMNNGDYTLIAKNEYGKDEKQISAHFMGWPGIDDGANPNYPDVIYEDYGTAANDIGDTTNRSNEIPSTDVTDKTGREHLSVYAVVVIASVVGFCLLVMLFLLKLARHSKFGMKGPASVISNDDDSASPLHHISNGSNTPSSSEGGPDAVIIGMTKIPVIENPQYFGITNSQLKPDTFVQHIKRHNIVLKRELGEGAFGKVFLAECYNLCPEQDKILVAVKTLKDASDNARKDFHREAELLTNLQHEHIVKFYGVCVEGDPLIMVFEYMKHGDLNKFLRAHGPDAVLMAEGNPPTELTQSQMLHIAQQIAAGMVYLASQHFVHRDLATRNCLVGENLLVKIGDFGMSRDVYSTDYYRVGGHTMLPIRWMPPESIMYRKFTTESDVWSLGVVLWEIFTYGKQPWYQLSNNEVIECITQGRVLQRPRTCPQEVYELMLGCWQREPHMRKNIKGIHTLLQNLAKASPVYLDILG

IC50 (TrkA) | IC50 (TrkB; [1]) | IC50 (TrkB) | SMILES
175 nM | 86 nM |  | COc1ccc(COc2ccc(Cn3cnc4cc(-n5cc(C6CCCNC6)nn5)ccc43)cc2OC)cn1 (stereo not drawn) [Ex. 3-6, 1-(3-Methoxy-4-((6-methoxypyridin-3-yl)methoxy)benzyl)-5-(4-(piperidin-3-yl)-1H-1,2,3-triazol-1-yl)-1H-benzo[d]imidazole]
0.2 nM | 0.3 nM |  | COc1cc(Cn2c(N)nc3cc(-c4cnn(C)c4)cnc32)ccc1OCc1ccc(CC(F)(F)F)cc1 [Ex. 3-40-4, 3-(3-methoxy-4-((4-(2,2,2-trifluoroethyl)benzyl)oxy)benzyl)-6-(1-methyl-1H-pyrazol-4-yl)-3H-imidazo[4,5-b]pyridin-2-amine]
3 nM | 2 nM |  | COc1ccc(COc2ccc(Cn3c(N)nc4cc(-c5ccn(C)n5)cnc43)cc2OC)cn1 [Ex. 3-37-2, 3-(3-methoxy-4-((6-methoxypyridin-3-yl)methoxy)benzyl)-6-(1-methyl-1H-pyrazol-3-yl)-3H-imidazo[4,5-b]pyridin-2-amine]
1 nM | 1 nM |  | COc1cc(C(C)n2c(N)nc3cc(C#CCCO)cnc32)ccc1OCc1ccc(C(F)(F)F)nc1 (stereo not drawn) [Ex. 3-55, 4-(2-amino-3-(1-(3-methoxy-4-((6-(trifluoromethyl)pyridin-3-yl)methoxy)phenyl)ethyl)-3H-imidazo[4,5-b]pyridin-6-yl)but-3-yn-1-ol]
7 nM | 3 nM |  | COc1ccc(COc2ccc(Cn3c(N)nc4cc(C#CCCO)cnc43)cc2OC)cn1 [Ex. 3-42, 4-(2-amino-3-(3-methoxy-4-((6-methoxypyridin-3-yl)methoxy)benzyl)-3H-imidazo[4,5-b]pyridin-6-yl)but-3-yn-1-ol]
793 nM |  | 257 nM | COc1ccc(COc2ccc(Cn3cnc4cc(N5CCOCC5)ccc43)cc2OC)cn1 [Ex. 3-9, 4-(1-(3-Methoxy-4-((6-methoxypyridin-3-yl)methoxy)benzyl)-1H-benzo[d]imidazol-5-yl)morpholine]
232 nM | 133 nM |  | COc1ccc(COc2ccc(Cn3cnc4cc(N5CCC(N)CC5)cnc43)cc2OC)cn1 [Ex. 3-18-6, 1-(3-(3-Methoxy-4-((6-methoxypyridin-3-yl)methoxy)benzyl)-3H-imidazo[4,5-b]pyridin-6-yl)piperidin-4-amine]
17 nM | 4 nM |  | COc1cc(Cn2cnc3cc(C#CCCO)cnc32)ccc1OCc1ccc(C(F)F)nc1 [Ex. 3-56, 4-(3-(4-((6-(difluoromethyl)pyridin-3-yl)methoxy)-3-methoxybenzyl)-3H-imidazo[4,5-b]pyridin-6-yl)but-3-yn-1-ol]
8 nM | 4 nM |  | COc1ccc(COc2ccc(Cn3c(N)nc4cc(-c5ccncc5)ccc43)cc2OC)cc1 [Ex. 3-2-2, 1-(3-Methoxy-4-((4-methoxybenzyl)oxy)benzyl)-5-(pyridine-4-yl)-1H-benzo[d]imidazol-2-amine]
0.2 nM | 0.2 nM |  | COc1cc(Cn2c(N)nc3cc(-c4cnn(C)c4)cnc32)ccc1OCc1ccc(OC(F)(F)F)cc1 [Ex. 3-40-1, 3-(3-methoxy-4-((4-(trifluoromethoxy)benzyl)oxy)benzyl)-6-(1-methyl-1H-pyrazol-4-yl)-3H-imidazo[4,5-b]pyridin-2-amine]
3 nM | 1 nM |  | COc1ccc(COc2ccc(Cn3c(N)nc4cc(-c5cnn(CCN6CCOCC6)c5)ccc43)cc2OC)cc1 [Ex. 3-2-3, 1-(3-Methoxy-4-((4-methoxybenzyl)oxy)benzyl)-5-(1-(2-morpholinoethyl)-1H-pyrazol-4-yl)-1H-benzo[d]imidazol-2-amine]
0.2 nM | 0.2 nM |  | COc1cc(Cn2c(N)nc3cc(-c4cnn(C)c4)cnc32)ccc1OCc1ccc(C(C)C)nc1 [Ex. 3-40-3, 3-(4-((6-isopropylpyridin-3-yl)methoxy)-3-methoxybenzyl)-6-(1-methyl-1H-pyrazol-4-yl)-3H-imidazo[4,5-b]pyridin-2-amine]
0.5 nM | 0.2 nM |  | COc1cc(Cn2c(N)nc3cc(-c4cnn(C)c4)cnc32)ccc1OCc1csc(C)n1 [Ex. 3-35-5, 3-(3-methoxy-4-((2-methylthiazol-4-yl)methoxy)benzyl)-6-(1-methyl-1H-pyrazol-4-yl)-3H-imidazo[4,5-b]pyridin-2-amine]
11100 nM | 3460 nM |  | COc1ccc(COc2ccc(Cn3cnc4cc(C5CCNCC5)ccc43)cc2OC)cn1 [Ex. 3-8, 1-(3-Methoxy-4-((6-methoxypyridin-3-yl)methoxy)benzyl)-5-(piperidin-4-yl)-1H-benzo[d]imidazole]
9 nM | 4 nM |  | COc1ccc(COc2ccc(Cn3c(N)nc4cc(-c5ccc(F)cc5)cnc43)cc2OC)cn1 [Ex. 3-37-1, 6-(4-fluorophenyl)-3-(3-methoxy-4-((6-methoxypyridin-3-yl)methoxy)benzyl)-3H-imidazo[4,5-b]pyridin-2-amine]
0.2 nM | 0.2 nM |  | COc1cc(Cn2c(N)nc3cc(-c4cnn(C)c4)cnc32)ccc1OCc1ccc(C2CC2)nc1 [Ex. 3-35-4, 3-(4-((6-cyclopropylpyridin-3-yl)methoxy)-3-methoxybenzyl)-6-(1-methyl-1H-pyrazol-4-yl)-3H-imidazo[4,5-b]pyridin-2-amine]
1240 nM | 427 nM |  | COc1cc(C(C)n2cnc3cc(-c4ccc(F)cc4)ccc32)ccc1OCc1ccc(C(F)(F)F)nc1 (stereo not drawn) [Ex. 3-47, 5-(4-fluorophenyl)-1-(1-(3-methoxy-4-((6-(trifluoromethyl)pyridin-3-yl)methoxy)phenyl)ethyl)-1H-benzo[d]imidazole]
54 nM | 57 nM |  | COc1ccc(COc2ccc(Cn3cnc4cc(N5CCC(C(C)(C)N)CC5)cnc43)cc2OC)cn1 [Ex. 3-18-1, 2-(1-(3-(3-Methoxy-4-((6-methoxypyridin-3-yl)methoxy)benzyl)-3H-imidazo[4,5-b]pyridin-6-yl)piperidin-4-yl)propan-2-amine]
201 nM | 118 nM |  | COc1ccc(COc2ccc(Cn3cnc4cc(C5=CC6(C)CCCN5C6)cnc43)cc2OC)cn1 (stereo not drawn) [Ex. 3-30, 3-(3-Methoxy-4-((6-methoxypyridin-3-yl)methoxy)benzyl)-6-(5-methyl-1-azabicyclo[3.2.1]oct-6-en-7-yl)-3H-imidazo[4,5-b]pyridine]
32 nM | 18 nM |  | COc1ccc(COc2ccc(Cn3cnc4cc(-n5cc(C6CCCNC6)nn5)cnc43)cc2OC)cn1 (stereo not drawn) [Ex. 3-25, 3-(3-Methoxy-4-((6-methoxypyridin-3-yl)methoxy)benzyl)-6-(4-(piperidin-3-yl)-1H-1,2,3-triazol-1-yl)-3H-imidazo[4,5-b]pyridine]
86 nM | 23 nM |  | COc1ccc(COc2ccc(Cn3c(N)nc4cc(-c5cncnc5)ccc43)cc2OC)cc1 [Ex. 3-2-1, 1-(3-Methoxy-4-((4-methoxybenzyl)oxy)benzyl)-5-(pyrimidin-5-yl)-1H-benzo[d]imidazol-2-amine]
7 nM | 1 nM |  | COc1cc(C(C)n2cnc3cc(-c4cnn(C)c4)cnc32)ccc1OCc1ccc(C(F)(F)F)nc1 (stereo not drawn) [Ex. 3-52, 3-(1-(3-methoxy-4-((6-(trifluoromethyl)pyridin-3-yl)methoxy)phenyl)ethyl)-6-(1-methyl-1H-pyrazol-4-yl)-3H-imidazo[4,5-b]pyridine]
692 nM | 127 nM |  | COc1cc(C(C)n2cnc3cc(C#CCCO)ccc32)ccc1OCc1ccc(C(F)(F)F)nc1 (stereo not drawn) [Ex. 3-48-2, 4-(1-(1-(3-methoxy-4-((6-(trifluoromethyl)pyridin-3-yl)methoxy)phenyl)ethyl)-1H-benzo[d]imidazol-5-yl)but-3-yn-1-ol]
160 nM | 61 nM |  | COc1ccc(-c2cnc3c(c2)ncn3Cc2ccc(OC(C)c3ccc(OC)nc3)c(OC)c2)cn1 (stereo not drawn) [Ex. 3-58-2, 3-(3-methoxy-4-(1-(6-methoxypyridin-3-yl)ethoxy)benzyl)-6-(6-methoxypyridin-3-yl)-3H-imidazo[4,5-b]pyridine formate]
85 nM | 37 nM |  | COc1ccc(COc2ccc(C(C)n3c(N)nc4cc(-c5ccc(F)cc5)ccc43)cc2OC)cn1 (stereo not drawn) [Ex. 3-46, 5-(4-fluorophenyl)-1-(1-(3-methoxy-4-((6-methoxypyridin-3-yl)methoxy)phenyl)ethyl)-1H-benzo[d]imidazol-2-amine]
215 nM | 68 nM |  | COc1ccc(C(C)Oc2ccc(Cn3cnc4cc(-c5ccnc(F)c5)cnc43)cc2OC)cn1 (stereo not drawn) [Ex. 3-58-3, 6-(2-fluoropyridin-4-yl)-3-(3-methoxy-4-(1-(6-methoxypyridin-3-yl)ethoxy)benzyl)-3H-imidazo[4,5-b]pyridine formate]
0.6 nM | 0.3 nM |  | COc1ccc(COc2ccc(Cn3c(N)nc4cc(-c5cnn(C)c5)cnc43)cc2OC)cn1 [Ex. 3-35-1, 3-(3-methoxy-4-((6-methoxypyridin-3-yl)methoxy)benzyl)-6-(1-methyl-1H-pyrazol-4-yl)-3H-imidazo[4,5-b]pyridin-2-amine]
65 nM | 80 nM |  | COc1ccc(COc2ccc(Cn3c(N)nc4cc(C#CC5CCCCC5)cnc43)cc2OC)cn1 [Ex. 3-41, 6-(cyclohexylethynyl)-3-(3-methoxy-4-((6-methoxypyridin-3-yl)methoxy)benzyl)-3H-imidazo[4,5-b]pyridin-2-amine]
1 nM | 0.5 nM |  | COc1ccc(COc2ccc(Cn3c(N)nc4cc(-c5cnn(C)c5)ccc43)cc2OC)cc1 [Ex. 3-1, 1-(3-Methoxy-4-((4-methoxybenzyl)oxy)benzyl)-5-(1-methyl-1H-pyrazol-4-yl)-1H-benzo[d]imidazol-2-amine]
306 nM | 317 nM |  | COc1ccc(COc2ccc(Cn3cnc4cc(-c5noc(C6CCNCC6)n5)ccc43)cc2OC)cn1 [Ex. 3-22, 3-(1-(3-Methoxy-4-((6-methoxypyridin-3-yl)methoxy)benzyl)-1H-benzo[d]imidazol-5-yl)-5-(piperidin-4-yl)-1,2,4-oxadiazole]

From patent US9067914B1, “Tropomyosin-related kinase (TRK) inhibitors” (Genzyme Corporation, priority 2013, dated 2015)
